According to PubChem BioAssay AID1845195 (Molecular Pharmacology Branch, DTP, NCI, 2023):

System: 156681-154-R-J1 tumor spheroid viability
Assay: Anticancer human tumor 156681-154-R-J1 patient-derived melanoma cell line growth inhibition
Details: spheroids with HUVEC and MSC; for IC50: curve of first compound; for viability, T/C: stronger effect = lower value; active = viability on the fitted dose curve at most 10% of control; inactive = the rest
Method in brief: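 Complex spheroids of malignant cells with endothelial cells and mesenchymal stem cells; agents alone or combined, from near clinical Cmax (or 10 microM if unknown) down in half-log steps, 0.25% DMSO final.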

[1] = second compound 0.003 µM, first compound 0.0316 µM
[2] = second compound 0.003 µM, first compound 0.1 µM
[3] = second compound 0.003 µM, first compound 0.316 µM
[4] = second compound 0.003 µM, first compound 1 µM
[5] = second compound 0.003 µM, first compound 3.16 µM
[6] = second compound 0.003 µM, first compound 10 µM
[7] = second compound 0.00949 µM, first compound 0.0316 µM
[8] = second compound 0.00949 µM, first compound 0.1 µM
[9] = second compound 0.00949 µM, first compound 0.316 µM
[10] = second compound 0.00949 µM, first compound 1 µM
[11] = second compound 0.00949 µM, first compound 3.16 µM
[12] = second compound 0.00949 µM, first compound 10 µM
[13] = second compound 0.03 µM, first compound 0.0316 µM
[14] = second compound 0.03 µM, first compound 0.1 µM
[15] = second compound 0.03 µM, first compound 0.316 µM
[16] = second compound 0.03 µM, first compound 1 µM
[17] = second compound 0.03 µM, first compound 3.16 µM
[18] = second compound 0.03 µM, first compound 10 µM
[19] = second compound 0.0949 µM, first compound 0.0316 µM
[20] = second compound 0.0949 µM, first compound 0.1 µM
[21] = second compound 0.0949 µM, first compound 0.316 µM
[22] = second compound 0.0949 µM, first compound 1 µM
[23] = second compound 0.0949 µM, first compound 3.16 µM
[24] = second compound 0.0949 µM, first compound 10 µM
[25] = second compound 0.3 µM, first compound 0.0316 µM
[26] = second compound 0.3 µM, first compound 0.1 µM
[27] = second compound 0.3 µM, first compound 0.316 µM
[28] = second compound 0.3 µM, first compound 1 µM
[29] = second compound 0.3 µM, first compound 3.16 µM
[30] = second compound 0.3 µM, first compound 10 µM
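Also: spheroids exposed to compounds for 7 days before readout.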
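For viability, T/C in this document: percent of vehicle control viability where 100% = DMSO-treated spheroids.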

CC1COCCN1c1cc(-c2ccnn2C)c2ccnc(-c3ccn[nH]3)c2n1 (stereo not given) + CC[C@@]1(O)C(=O)OCc2c1cc1n(c2=O)Cc2cc3c(CN(C)C)c(O)ccc3nc2-1
inactive: viability, T/C [1] 83.5% | viability, T/C [2] 62.5% | viability, T/C [3] 36.7% | viability, T/C [4] 27.1% | viability, T/C [5] 26.7% | viability, T/C [6] 23.9% | viability, T/C [7] 60.7% | viability, T/C [8] 66.5% | viability, T/C [9] 39.9% | viability, T/C [10] 31.9% | viability, T/C [11] 29.6% | viability, T/C [12] 23.6% | viability, T/C [13] 55.2% | viability, T/C [14] 44.8% | viability, T/C [15] 32.8% | viability, T/C [16] 28.5% | viability, T/C [17] 27.4% | viability, T/C [18] 23.5% | viability, T/C [19] 26.3% | viability, T/C [20] 26.6% | viability, T/C [21] 28.3% | viability, T/C [22] 27.5% | viability, T/C [23] 26.7% | viability, T/C [24] 21.1% | viability, T/C [25] 35.2% | viability, T/C [26] 34.3% | viability, T/C [27] 39.6% | viability, T/C [28] 37.2% | viability, T/C [29] 29.6% | viability, T/C [30] 27.6%
< 31.6 nM: IC50 (second compound 0.0949 µM) | IC50 (second compound 0.3 µM)
175 nM: IC50 (second compound 0.003 µM)
52.4 nM: IC50 (second compound 0.03 µM)
194 nM: IC50 (second compound 0.00949 µM)

COc1cc(C)[nH]c(=O)c1CN1CCc2c(Cl)cc(C(OC)C3COC3)c(Cl)c2C1=O (stereo not given) + CC[C@@]1(O)C(=O)OCc2c1cc1n(c2=O)Cc2cc3c(CN(C)C)c(O)ccc3nc2-1
inactive: viability, T/C [1] 106% | viability, T/C [2] 93.3% | viability, T/C [3] 120% | viability, T/C [4] 99% | viability, T/C [5] 95.3% | viability, T/C [6] 96.8% | viability, T/C [7] 105% | viability, T/C [8] 83.2% | viability, T/C [9] 91.6% | viability, T/C [10] 88.7% | viability, T/C [11] 84.7% | viability, T/C [12] 92.3% | viability, T/C [13] 80.4% | viability, T/C [14] 71.1% | viability, T/C [15] 77% | viability, T/C [16] 86.3% | viability, T/C [17] 77.7% | viability, T/C [18] 84.9% | viability, T/C [19] 28.8% | viability, T/C [20] 31.6% | viability, T/C [21] 34.6% | viability, T/C [22] 32.3% | viability, T/C [23] 32.5% | viability, T/C [24] 49.5% | viability, T/C [25] 38.6% | viability, T/C [26] 42.4% | viability, T/C [27] 38.1% | viability, T/C [28] 39.4% | viability, T/C [29] 40.1% | viability, T/C [30] 38.2%
> 10000 nM: IC50 (second compound 0.003 µM) | IC50 (second compound 0.00949 µM) | IC50 (second compound 0.03 µM)
< 31.6 nM: IC50 (second compound 0.0949 µM) | IC50 (second compound 0.3 µM)

Cc1cc(C)c(CNC(=O)c2cc(-c3ccc(CN4CCOCC4)cc3)cc3c2cnn3C2CCCC2)c(=O)[nH]1 + CC[C@@]1(O)C(=O)OCc2c1cc1n(c2=O)Cc2cc3c(CN(C)C)c(O)ccc3nc2-1
> 10000 nM: IC50 (second compound 0.003 µM) | IC50 (second compound 0.00949 µM)
inactive: viability, T/C [1] 137% | viability, T/C [2] 111% | viability, T/C [3] 86.7% | viability, T/C [4] 87.8% | viability, T/C [5] 84.4% | viability, T/C [6] 82.9% | viability, T/C [7] 83% | viability, T/C [8] 81.6% | viability, T/C [9] 73.8% | viability, T/C [10] 84.8% | viability, T/C [11] 84.5% | viability, T/C [12] 79.5% | viability, T/C [13] 65.7% | viability, T/C [14] 66.6% | viability, T/C [15] 55.4% | viability, T/C [16] 57.7% | viability, T/C [17] 49.3% | viability, T/C [18] 51% | viability, T/C [19] 23.4% | viability, T/C [20] 17.8% | viability, T/C [21] 25.1% | viability, T/C [22] 20.6% | viability, T/C [23] 17.5% | viability, T/C [24] 22.2% | viability, T/C [25] 31.3% | viability, T/C [26] 29.5% | viability, T/C [27] 31.8% | viability, T/C [28] 30.9% | viability, T/C [29] 27.6% | viability, T/C [30] 30.6%
< 31.6 nM: IC50 (second compound 0.0949 µM) | IC50 (second compound 0.3 µM)
8490 nM: IC50 (second compound 0.03 µM)

[2H]c1nc(C)nc([2H])c1-c1cc(NC[C@@H](C)c2cccc3c(C(=O)NC)ccnc23)ncn1 + CC[C@@]1(O)C(=O)OCc2c1cc1n(c2=O)Cc2cc3c(CN(C)C)c(O)ccc3nc2-1
> 10000 nM: IC50 (second compound 0.003 µM) | IC50 (second compound 0.00949 µM) | IC50 (second compound 0.03 µM)
< 31.6 nM: IC50 (second compound 0.0949 µM) | IC50 (second compound 0.3 µM)
inactive: viability, T/C [1] 100% | viability, T/C [2] 132% | viability, T/C [3] 112% | viability, T/C [4] 92.2% | viability, T/C [5] 92.3% | viability, T/C [6] 78% | viability, T/C [7] 97.6% | viability, T/C [8] 81.4% | viability, T/C [9] 103% | viability, T/C [10] 95.8% | viability, T/C [11] 97.2% | viability, T/C [12] 78.2% | viability, T/C [13] 69.3% | viability, T/C [14] 72.3% | viability, T/C [15] 66.6% | viability, T/C [16] 65.6% | viability, T/C [17] 64.7% | viability, T/C [18] 76% | viability, T/C [19] 28.3% | viability, T/C [20] 26.2% | viability, T/C [21] 27.4% | viability, T/C [22] 25% | viability, T/C [23] 32.4% | viability, T/C [24] 29.9% | viability, T/C [25] 37.1% | viability, T/C [26] 32.6% | viability, T/C [27] 31.5% | viability, T/C [28] 40.6% | viability, T/C [29] 33.2% | viability, T/C [30] 36.4%
